Patent publication US5965088A, “Method for providing rapid disinfection of contact lenses” (priority 1997, dated 1999)
Several values for one entry are separate records, joined by “and”; a condition that tells them apart may be missing. Identical values can stand only once.

Columns and labels:
[1] = test system: rabbit eye (cornea, iris, conjunctivae); experiment: Ocular irritation screening study in the rabbit (Draize score, soaked soft lenses); assay type: in vivo; set-up: key to Draize macroscopic ocular score (weighted total): Draize weighted total score; max 110 per eye; details: for Draize macroscopic ocular score (weighted total): right (test) eye
Experimental: (§1) A series of formulations were prepared in which the amount of alexidine were, respectively 4 ppm (test 1), 6 ppm (test 2), 8 ppm (test 3), 10 ppm (test 4), 12 ppm (test 5), 15 ppm (test 6), 18 ppm (test 7), 22 ppm (test 8), 27 ppm (test 9), 33 ppm (test 10), 40 ppm (test 11) and 50 ppm (test 12). These test solutions of alexidine were used in soaking J&J Sure Vue® (etafilcon A) lenses (soft lenses) in 2.5 mL of solution for 1 week or more in order to reach maximal alexidine uptake.
(§2) An ocular irritation screening study was conducted in the rabbit to determine the threshold for ocular irritation. Eyes treated with the lenses were compared to a contralateral control eye. Treated lenses were placed on the right eye of rabbits; control lenses were placed on the left eye. Any lenses displaced from the eyes during the lens wear day were reinserted after rinsing with 0.9% sodium chloride USP solution (SC). Eyes were examined with the aid of a direct light source before lens placement, at 50-70 minutes, 7-8 hours, 23-24 hours, and 30-32 hours after placement. Macroscopic observations were recorded in accordance with criteria in the Draize^* score system. The maximum total score is the sum of all scores obtained for the cornea, iris, and conjunctivae. Total maximum score possible is 110 per eye, 80 with respect to the cornea, 10 with respect to the iris, and 20 with respect to the conjunctivae.
(§3) *Draize, J. H., G. Woodward and H. O. Calvery. 1944. Methods for the study of irritation and toxicity of substances applied topically to the skin and mucous membranes. J. Pharmacol. Exp. Ther. 82:377-390.

[2] = as above; assay type: in vivo; set-up: key to Draize macroscopic ocular score (weighted total): Draize weighted total score; max 110 per eye; details: rabbit, in vivo, topical or ocular; 4 ppm formulation; rabbits; read-out: safety margin relative to initial onset of abnormal ocular health
Experimental: as §1, §2, §3

**Q.** Which “safety in disinfecting soft lenses” value ([1]; 4.0 ppm, based on rabbit studies) does the source give for `CCCCC(CC)CNC(=N)NC(=N)NCCCCCCNC(=N)NC(=N)NCC(CC)CCCC.Cl.Cl` (stereo not drawn) [Alexidine.2HCl, 1,1 '-hexamethylenebis(5-(2-ethylhexyl)-biguanide) dihydrochloride] here?
**A.** Its value is “very safe for human use in disinfecting soft lenses”.

**Q.** And the “Draize macroscopic ocular score (weighted total)” value (from here on “Draize macroscopic ocular score”) ([1]; 4 ppm, 7-8 hours post lens)?
**A.** The value was 2.

**Q.** What about the “Draize macroscopic ocular score” value ([1]; 4 ppm, 23-24 hours post lens) of the same compound?
**A.** Its value is 2.

**Q.** And the “Draize macroscopic ocular score” value ([1]; 4 ppm, 30-32 hours post lens)?
**A.** The value was 2.

**Q.** And the “Draize macroscopic ocular score” value ([1]; 4 ppm, 50-70 minutes post lens)?
**A.** The value was 2.

**Q.** What about the “Draize macroscopic ocular score” value ([1]; 6 ppm, 7-8 hours post lens) of the same compound?
**A.** The value was 2.

**Q.** What about the “Draize macroscopic ocular score” value ([1]; 6 ppm, 23-24 hours post lens) of the same compound?
**A.** Its value is 2.

**Q.** And the “Draize macroscopic ocular score” value ([1]; 6 ppm, 30-32 hours post lens)?
**A.** The value was 2.

**Q.** What about the “Draize macroscopic ocular score” value ([1]; 6 ppm, 50-70 minutes post lens) of the same compound?
**A.** The value was 2.

**Q.** What about the “Draize macroscopic ocular score” value ([1]; 8 ppm, 7-8 hours post lens) of the same compound?
**A.** Its value is 2.

**Q.** And the “Draize macroscopic ocular score” value ([1]; 8 ppm, 23-24 hours post lens)?
**A.** Its value is 2.

**Q.** And the “Draize macroscopic ocular score” value ([1]; 8 ppm, 30-32 hours post lens)?
**A.** The value was 2.

**Q.** And the “Draize macroscopic ocular score” value ([1]; 8 ppm, 50-70 minutes post lens)?
**A.** Its value is 2.

**Q.** And the “Draize macroscopic ocular score” value ([1]; 10 ppm, 7-8 hours post lens, dihydrochloride)?
**A.** Its value is 4 and 2.

**Q.** What about the “Draize macroscopic ocular score” value ([1]; 10 ppm, 50-70 minutes post lens) of the same compound?
**A.** The value was 2.

**Q.** What about the “Draize macroscopic ocular score” value ([1]; 12 ppm, 7-8 hours post lens) of the same compound?
**A.** The value was 2.

**Q.** And the “Draize macroscopic ocular score” value ([1]; 12 ppm, 23-24 hours post lens)?
**A.** Its value is 2.

**Q.** And the “Draize macroscopic ocular score” value ([1]; 12 ppm, 30-32 hours post lens)?
**A.** Its value is 2.

**Q.** And the “Draize macroscopic ocular score” value ([1]; 12 ppm, 50-70 minutes post lens)?
**A.** The value was 2.

**Q.** And the “Draize macroscopic ocular score” value ([1]; 15 ppm, 7-8 hours post lens)?
**A.** Its value is 4.

**Q.** And the “Draize macroscopic ocular score” value ([1]; 15 ppm, 30-32 hours post lens)?
**A.** The value was 2.

**Q.** What about the “Draize macroscopic ocular score” value ([1]; 15 ppm, 50-70 minutes post lens, dihydrochloride) of the same compound?
**A.** The value was 2 and 4.

**Q.** What about the “Draize macroscopic ocular score” value ([1]; 18 ppm, 7-8 hours post lens) of the same compound?
**A.** Its value is 6.

**Q.** And the “Draize macroscopic ocular score” value ([1]; 18 ppm, 23-24 hours post lens)?
**A.** The value was 2.

**Q.** And the “Draize macroscopic ocular score” value ([1]; 18 ppm, 30-32 hours post lens)?
**A.** The value was 2.

**Q.** And the “Draize macroscopic ocular score” value ([1]; 18 ppm, 50-70 minutes post lens)?
**A.** The value was 2.

**Q.** What about the “Draize macroscopic ocular score” value ([1]; 22 ppm, 7-8 hours post lens) of the same compound?
**A.** Its value is 11.

**Q.** And the “Draize macroscopic ocular score” value ([1]; 22 ppm, 23-24 hours post lens)?
**A.** Its value is 2.

**Q.** And the “Draize macroscopic ocular score” value ([1]; 22 ppm, 30-32 hours post lens)?
**A.** The value was 2.

**Q.** What about the “Draize macroscopic ocular score” value ([1]; 22 ppm, 50-70 minutes post lens) of the same compound?
**A.** The value was 2.

**Q.** What about the “Draize macroscopic ocular score” value ([1]; 27 ppm, 50-70 minutes post lens) of the same compound?
**A.** Its value is 2.

**Q.** What about the “conjunctival reaction clearly defined” value ([1]; lenses soaked in solution) of the same compound?
**A.** Its value is 15 ppm.

**Q.** What about the corneal opacity observed ([1]; lenses soaked in solution) of the same compound?
**A.** Its corneal opacity observed is 27 ppm.

**Q.** What about the iridial involvement observed ([1]; lenses soaked in solution) of the same compound?
**A.** Its iridial involvement observed is 22 ppm.

**Q.** What about the “first signs of increased ocular toxicity (conjunctival reactions)” value ([1]; lenses soaked, after 7-8 hours of lens wear) of the same compound?
**A.** Its value is 10 ppm.

**Q.** What about the selectivity ratio [2] of the same compound?
**A.** Its selectivity ratio is 2.5.
